Assays:
[1] = molecular target: T1, hEP3 subtype (hEP3α, hEP3-21 and hEP3-9 isoforms) (Homo sapiens, UniProt P43115); experiment: [3H]PGE2 competition binding, value stated across the three hEP3 isoforms
T1 sequence (P43115 1-390): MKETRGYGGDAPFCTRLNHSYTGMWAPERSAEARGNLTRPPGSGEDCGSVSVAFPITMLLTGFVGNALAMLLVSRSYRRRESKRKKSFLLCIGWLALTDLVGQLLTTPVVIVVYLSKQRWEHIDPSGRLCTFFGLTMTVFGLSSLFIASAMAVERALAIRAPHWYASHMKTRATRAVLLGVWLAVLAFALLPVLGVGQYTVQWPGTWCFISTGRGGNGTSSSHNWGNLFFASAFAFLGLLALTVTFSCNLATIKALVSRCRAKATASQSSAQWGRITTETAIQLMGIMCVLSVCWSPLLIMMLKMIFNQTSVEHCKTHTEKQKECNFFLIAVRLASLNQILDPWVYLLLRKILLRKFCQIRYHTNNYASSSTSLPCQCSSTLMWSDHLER
Experimental: (§1) Mammalian cell transfectants are analyzed for both the levels of EP3 receptor activity and levels of EP3 protein by the following methods. Assessing EP3 receptor activity involves the direct introduction of a labelled ligand to the cells and determining the amount of specific binding of the ligand to the EP3-expressing cells. Binding assays for receptor activity are known in the art (Frey et al., 1993, Eur. J. Pharmacol., 244, pp 239-250).
The three cloned forms of the human prostaglandin E receptor EP3 subtype (hEP3a, hEP3-21 and hEP3-9) which differ in the carboxyl terminus region of the encoded protein were individually subcloned into the pcDNAlamp plasmid (Invitrogen) and transfected into COS-M6 cells using the DEAE-dextran method. The cells were maintained in culture for 72 hours, then harvested and membranes prepared by differential centrifugation (1000 x g for 10 minutes, then 100,000 x g for 30 minutes) following lysis of the cells by nitrogen cavitation. […] Incubations were conducted for 1 hour at room temperature prior to separation of the bound and free radioligand by rapid filtration as previously described (Frey et al., 1993).

hEP1 = molecular target: T2, hEP1 (Homo sapiens, UniProt P34995); experiment: Binding at the hEP1 subtype (comparison value); conditions: given for comparison
T2 sequence (P34995 1-402): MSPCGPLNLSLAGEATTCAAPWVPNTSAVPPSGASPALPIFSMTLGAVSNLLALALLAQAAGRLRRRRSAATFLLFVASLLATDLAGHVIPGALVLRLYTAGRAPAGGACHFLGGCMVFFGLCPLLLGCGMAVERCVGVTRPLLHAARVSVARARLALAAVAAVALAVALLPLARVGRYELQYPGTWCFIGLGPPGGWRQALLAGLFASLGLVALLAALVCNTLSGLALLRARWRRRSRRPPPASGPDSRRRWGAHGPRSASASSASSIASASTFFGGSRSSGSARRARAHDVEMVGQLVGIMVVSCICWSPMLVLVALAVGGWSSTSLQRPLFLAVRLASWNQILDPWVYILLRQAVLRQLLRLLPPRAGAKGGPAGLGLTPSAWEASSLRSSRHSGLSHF

hEP3α = molecular target: T3, hEP3α (Homo sapiens, UniProt P43115); experiment: [3H]PGE2 binding assay, membranes of pcDNAIamp-hEP3α transfected COS-M6 cells; conditions: for fold less active than PGE2: competition for [3H]PGE2 specific binding, relative to PGE2
T3 construct: a 1.9 kb full length human EP3α cDNA clone was plaque-purified; expressed in transfected cells; host or cells: COS-M6 cells (membranes), pcDNAIamp vector
T3 sequence (P43115 1-390): T1 sequence (P43115 1-390)
Experimental: as §1, with “cells.” for “cells. Binding assays for receptor activity are known in the art (Frey et al., 1993, Eur. J. Pharmacol., 244, pp 239-250).”
(§2) The three cloned forms of the human prostaglandin E receptor EP3 subtype (hEP3a, hEP3-21 and hEP3-9) which differ in the carboxyl terminus region of the encoded protein were individually subcloned into the pcDNAlamp plasmid (Invitrogen) and transfected into COS-M6 cells using the DEAE-dextran method. The cells were maintained in culture for 72 hours, then harvested and membranes prepared by differential centrifugation (1000 x g for 10 minutes, then 100,000 x g for 30 minutes) following lysis of the cells by nitrogen cavitation.

hEP3-21 = molecular target: T4, hEP3-21 (Homo sapiens, UniProt P43115); experiment: [3H]PGE2 binding assay, membranes of pcDNAIamp-hEP3-21 transfected COS-M6 cells; conditions: for fold less active than PGE2: competition for [3H]PGE2 specific binding, relative to PGE2
T4 construct: both a 1.7 kb full length human EP3-21 cDNA clone and a 1.4 kb full length human EP3-9 cDNA clone; expressed in transfected cells; host or cells: COS-M6 cells (membranes), pcDNAIamp vector
T4 sequence (P43115 1-388 isoform P43115-2): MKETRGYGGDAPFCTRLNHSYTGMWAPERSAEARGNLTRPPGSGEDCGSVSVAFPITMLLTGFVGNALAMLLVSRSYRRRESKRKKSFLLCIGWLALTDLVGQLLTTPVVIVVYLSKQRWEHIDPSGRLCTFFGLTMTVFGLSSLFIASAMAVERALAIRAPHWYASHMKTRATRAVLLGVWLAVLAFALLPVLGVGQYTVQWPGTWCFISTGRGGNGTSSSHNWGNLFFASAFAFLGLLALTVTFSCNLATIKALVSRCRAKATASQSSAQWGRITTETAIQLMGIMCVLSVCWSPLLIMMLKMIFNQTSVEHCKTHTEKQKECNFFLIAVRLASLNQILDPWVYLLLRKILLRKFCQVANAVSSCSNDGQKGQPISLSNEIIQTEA
Experimental: as §1, with “cells.” for “cells. Binding assays for receptor activity are known in the art (Frey et al., 1993, Eur. J. Pharmacol., 244, pp 239-250).”
as §2

hEP3-9 = molecular target: T5, hEP3-9 (Homo sapiens, UniProt P43115); experiment: [3H]PGE2 binding assay, membranes of hEP3-9 transfected COS-M6 cells; conditions: for fold less active than PGE2: competition for [3H]PGE2 specific binding, relative to PGE2
T5 construct: both a 1.7 kb full length human EP3-21 cDNA clone and a 1.4 kb full length human EP3-9 cDNA clone; expressed in transfected cells; host or cells: COS-M6 cells (membranes), pcDNAIamp vector
T5 sequence (P43115 1-365 isoform P43115-3): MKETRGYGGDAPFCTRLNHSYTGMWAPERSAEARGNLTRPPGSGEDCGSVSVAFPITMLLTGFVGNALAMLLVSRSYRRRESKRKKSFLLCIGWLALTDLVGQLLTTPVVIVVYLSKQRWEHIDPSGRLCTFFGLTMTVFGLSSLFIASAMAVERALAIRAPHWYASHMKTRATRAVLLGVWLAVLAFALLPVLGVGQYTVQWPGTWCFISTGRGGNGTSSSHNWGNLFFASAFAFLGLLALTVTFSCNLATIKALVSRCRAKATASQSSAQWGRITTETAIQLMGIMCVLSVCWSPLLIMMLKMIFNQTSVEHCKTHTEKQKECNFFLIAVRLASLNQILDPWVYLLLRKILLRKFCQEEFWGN
Experimental: as §1, with “cells.” for “cells. Binding assays for receptor activity are known in the art (Frey et al., 1993, Eur. J. Pharmacol., 244, pp 239-250).”
as §2

thromboxane receptor = molecular target: T6, thromboxane receptor (Homo sapiens, UniProt P21731); experiment: SQ-29548 binding to 293 cells and membranes transfected with thromboxane-receptor cDNA; conditions: human embryonic kidney 293 cells and membranes transfected with thromboxane-receptor cDNA
T6 construct: One full-length (≈ 2.9 kb) clone contained extensive 5' and 3' noncoding regions; expressed in transfected cells; host or cells: human embryonic kidney 293 cells and membranes
T6 sequence (P21731 1-343): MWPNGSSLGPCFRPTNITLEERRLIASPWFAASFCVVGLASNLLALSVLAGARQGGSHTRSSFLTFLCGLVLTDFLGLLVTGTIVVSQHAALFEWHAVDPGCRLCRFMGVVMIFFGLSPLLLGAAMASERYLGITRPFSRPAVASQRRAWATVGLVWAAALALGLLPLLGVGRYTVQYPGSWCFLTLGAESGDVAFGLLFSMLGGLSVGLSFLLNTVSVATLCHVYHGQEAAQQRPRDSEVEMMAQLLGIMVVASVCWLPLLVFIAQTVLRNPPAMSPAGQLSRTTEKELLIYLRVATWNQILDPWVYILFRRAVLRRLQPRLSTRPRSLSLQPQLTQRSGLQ
Excerpt: The thromboxane receptor has been expressed in Xenopus oocytes. It can couple with endogenous signal transduction components to elicit a calcium-activated Cl- current recorded by electrophysiological measurement using the procedure described by Hirata, M. et al., (1991), Nature, 349, pp. 617. Binding studies have been performed with COS-1 cell membranes transfected by thromboxane receptor cDNA using the ligand S-145 (Hirata, M. et al., (1991), Nature, 349, pp. 617). […] This level of expression is at least 5-10 times higher than in platelet membranes. On a per-cell basis assuming a 10% transfection efficiency, we estimate ≈ 10^6 binding sites/tranfected cell as compared to ≈ 1300 sites present on a platelet (Hourani, S.M.O, et al., (1991), Pharmacol. Rev., 43, pp. 243).

Compound	IC50 [1] [nM]	fold less active than PGE2 (hEP3α)	fold less active than PGE2 (hEP3-21)	fold less active than PGE2 (hEP3-9) [fold]	other results
CC(C)Oc1ccc2c(=O)c3cc(C(=O)O)ccc3oc2c1 [AH6809]	2000 to 7000	–	–	–	fold less active at the hEP3 subtype as compared with the hEP1 subtype ([1]; hEP3 versus hEP1, in general): 5-10 fold; IC50 (hEP1): 500 nM
CCCCC[C@H](O)/C=C/[C@H]1C(=O)C[C@H](O)[C@@H]1C/C=C\CCCC(=O)O [PGD2]	–	~2000 fold	~2000 fold	~500	–
CCCCC[C@H](O)/C=C/[C@H]1[C@H](O)CC(=O)[C@@H]1CCCCCCC(=O)O [PGE1]	–	–	–	–	IC50 (hEP3α): ~1 nM; IC50 (hEP3-21): ~1 nM; IC50 (hEP3-9): ~1 nM
O=C(O)CCC/C=C\C[C@@H]1[C@H](CNNC(=O)Nc2ccccc2)[C@H]2CC[C@@H]1O2 [SQ-29548]	–	–	–	–	binding (thromboxane receptor): high affinity binding

The next lines start with results.

IC50 [1] [nM]	fold less active than PGE2 (hEP3α)	fold less active than PGE2 (hEP3-21)	fold less active than PGE2 (hEP3-9) [fold]	Compound	other results
300 to 1200	–	–	–	CCCCC(C)(O)C/C=C/[C@H]1[C@H](O)CC(=O)[C@@H]1CCCCCCC(=O)OC (mixture of isomers) [misoprostol]	–
–	approximately 200 fold	approximately 200 fold	~65	CCCCC[C@H](O)/C=C/[C@@H]1[C@@H](C/C=C\CCCC(=O)O)[C@@H](O)C[C@H]1O [PGF2α]	–
